Data as given in publication PMC12655351, “Synthesis and Anticancer Activity Evaluation of New 5-((5-Nitrofuran-2-yl)allylidene)-2-thioxo-4-thiazolidinones” (Pharmaceuticals, 2025).
Where “and” joins values, the source holds several entries; their conditions need not be identical. Equal entries are not always repeated. Where two headings read alike, the source gives them in different places.

What was measured:
[1] = system: caspase-3 in MDA-MB-231 cells; test: caspase-3 ELISA; format: cell-based, human; conditions: MDA-MB-231, 10 μM (highest concentration), 24 h
Description: To confirm the activity of the caspase pathway, an effector caspase-3 was assayed on MCF-7 and MDA-MB-231 cell lines after 24 h of treatment using the ELISA method. Novel 4-thiazolidinone derivatives were tested in concentrations of 1 and 5 μM for the MCF-7 cell line and 5 and 10 μM for the MDA-MB-231 cell line.
Using a SimpleStep ELISA kit (Abcam, Cambridge, UK), we determined the levels of cytochrome C and caspase-3 in cells’ lysates with 2b, 12b, and 14b (1 and 5 μM for the MCF-7 cell line and 5 and 10 μM for the MDA-MB-231) and doxorubicin in concentrations of 1 and 5 μM for both lines after 24 h incubation. Assays were performed according to the manufacturer’s protocols.

DLD-1 = test: MTT assay; format: cell-based; conditions: Homo sapiens; DLD-1, 24 h of treatment
Description: (§1) The NCI-60 screening protocol utilizes the sulforhodamine B (SRB) assay following 48 h of compound exposure. […] The MTT assay was performed on eleven cancer cell lines: human breast cancer (MDA-MB-231, MCF-7, HCC 1954), human gastric cancer (AGS), human colorectal adenocarcinoma (HT-29, DLD-1, HCT 116), human neuroblastoma (SH SY5Y), and human leukemia (JURKAT, RMPI 8866, K-562) cell lines. The study was conducted in triplicate at the following seven concentrations: 0.62, 1.25, 2.5, 5, 10, 20, and 40 μM.
(§2) The selected cell lines were seeded into 96-well plates and cultured in accordance with the previously described methodology. Then, the cells were treated with all tested compounds and DOX at concentrations of 0.625, 1.25, 2.5, 5.0, 10.0, 20.0, and 40.0 μM for 24 h. A solution of 3-(4,5-dimethyl-2-thiazolyl)-2,5-diphenyl-2H-tetrazolium bromide (Sigma-Aldrich, St. Louis, MO, USA) in phosphate-buffered saline without calcium and magnesium (Corning, Kennebunk, ME, USA) at a concentration of 5 mg/mL was used to carry out MTT assay. After incubation, 20 μL of the prepared MTT solution was added, and then the cells were incubated at 37 °C for two hours. Afterwards, the cells were lysed using 100 μL of lysing buffer (comprising 25 mM HCl, 2% acetic acid, 3% DMF, and 5% SDS, with a pH of 4.7). The absorbance was determined at a wavelength of 570 nm using an Absorbance 96 microplate reader (Byonoy GmbH, Hamburg, Germany).

HT-29 = test: MTT assay; format: cell-based; conditions: Homo sapiens; HT-29, 24 h of treatment
Description: as §1, §2

MDA-MB-231 = test: MTT assay; format: cell-based; conditions: Homo sapiens; MDA-MB-231, 24 h of treatment
Description: as §1, §2

SH SY5Y = test: MTT assay; format: cell-based; conditions: Homo sapiens, 24 h of treatment
Description: as §1, §2

HCC-1954 = test: MTT assay; format: cell-based; conditions: Homo sapiens, HCC1954; HCC-1954, 24 h of treatment
Description: as §1, §2

K562 = test: MTT assay; format: cell-based; conditions: Homo sapiens; K562, 24 h of treatment
Description: as §1, §2

RPMI 8866 = test: MTT assay; format: cell-based; conditions: Homo sapiens; RPMI 8866, 24 h of treatment
Description: as §1, §2

MCF-7 = test: MTT assay; format: cell-based; conditions: Homo sapiens, MCF7; MCF-7, 24 h of treatment
Description: as §1, §2

Jurkat = test: MTT assay; format: cell-based; conditions: Homo sapiens, 24 h of treatment
Description: as §1, §2

AGS = test: MTT assay; format: cell-based; conditions: Homo sapiens, 24 h of treatment
Description: as §1, §2

HCT-116 = test: MTT assay; format: cell-based; conditions: Homo sapiens; HCT-116, 24 h of treatment
Description: as §1, §2

SK-MEL-5 = test: cells; conditions: Homo sapiens, SK-MEL-5, 48 h; for CC50: read-out: LC50, SK-MEL-5, 48 h
HOP-62 = test: NCI-60 SRB screen; conditions: for TGI / GI50: HOP-62, 48 h
K-562 = conditions: K-562, 48 h
OVCAR-3 = conditions: for TGI / GI50: OVCAR-3, 48 h; for growth GP: OVCAR-3, 10 μM, 48 h
SF-539 = test: cells; conditions: Homo sapiens, SF-539, 48 h
SNB-75 = test: NCI-60 SRB screen; conditions: SNB-75, 48 h; for CC50: read-out: LC50, SNB-75, 48 h
SR = test: cells; conditions: Homo sapiens, 48 h; for CC50: read-out: LC50
UACC-62 = test: NCI-60 SRB screen; conditions: for GI50 / CC50 / TGI: UACC-62, 48 h; for growth GP: UACC-62, 10 μM, 48 h
[2] = Homo sapiens, read-out: LC50, UACC-62, 48 h

SMILES	IC50 (DLD-1) [µM]	IC50 (HT-29) [µM]	IC50 (MDA-MB-231) [µM]	IC50 (SH SY5Y) [µM]	IC50 (HCC-1954) [µM]	IC50 (K562) [µM]	IC50 (RPMI 8866) [µM]	IC50 (MCF-7) [µM]	IC50 (Jurkat) [µM]	IC50 (AGS) [µM]	IC50 (HCT-116) [µM]	GI50 (SK-MEL-5) [µM]	CC50 (SK-MEL-5) [µM]	TGI (HOP-62)	GI50 (HOP-62; Homo sapiens) [µM]	TGI (K-562) [µM]	TGI (OVCAR-3)	CC50 (SNB-75; Homo sapiens) [µM]	TGI (SNB-75)	GI50 (UACC-62; Homo sapiens) [µM]	other results
CC(C(=O)O)N1C(=O)/C(=C/C=C/c2ccc([N+](=O)[O-])o2)SC1=S (stereo not shown) [2b, 2-((Z)-5-((E)-3-(5-Nitrofuran-2-yl)allylidene)-4-oxo-2-thioxothiazolidin-3-yl)propanoic acid]	9.98	24.5	25.4	30.6	12.5	> 40	29	11.3	4.78	12.1	39										change of caspase-3 concentration [1]: slight increase
CCCC(C(=O)O)N1C(=O)/C(=C/C=C/c2ccc([N+](=O)[O-])o2)SC1=S (stereo not shown) [4b, 2-((Z)-5-((E)-3-(5-Nitrofuran-2-yl)allylidene)-4-oxo-2-thioxothiazolidin-3-yl)pentanoic acid]	7.61	13.2	17.5	16.3	7.07	16.1	19.6	5.87	5.85	6.54	7.89	1.47	5.31	5.43 µM	2.23	14.5	5.39 µM	6.99	3.27 µM	1.5	GI50 (SF-539): 2.12 µM; GI50 (SNB-75; Homo sapiens): 1.53 µM; GI50 (SR): 1.86 µM; CC50 (SR): > 100 µM; CC50 (UACC-62; [2]): 5.9 µM; TGI (UACC-62): 2.98 µM
CC(C)C(C(=O)O)N1C(=O)/C(=C/C=C/c2ccc([N+](=O)[O-])o2)SC1=S (stereo not shown) [5b, 3-Methyl-2-((Z)-5-((E)-3-(5-nitrofuran-2-yl)allylidene)-4-oxo-2-thioxothiazolidin-3-yl)butanoic acid]	3.86	7.74	9.12	9.37	6.42	16.1	13.5	3.32	3.73	2.65	4.21	1.03	4.74	3.08 µM	1.35	2.86	2.77 µM	4.89	1.98 µM	0.78	growth GP (OVCAR-3): -95.93%; GI50 (SF-539): 1.44 µM; GI50 (SNB-75; Homo sapiens): 0.68 µM; GI50 (SR): 0.32 µM; CC50 (SR): > 100 µM; CC50 (UACC-62; [2]): 4.9 µM; TGI (UACC-62): 2.16 µM
CCCCC(C(=O)O)N1C(=O)/C(=C/C=C/c2ccc([N+](=O)[O-])o2)SC1=S (stereo not shown) [6b, 2-((Z)-5-((E)-3-(5-nitrofuran-2-yl)allylidene)-4-oxo-2-thioxothiazolidin-3-yl)hexanoic acid]	4.58	8.01	10.3	8.39	4.18	36.2	15.2	6.39	13.9	3.99	17.6	1.45	5.29	5.20 µM	2.25	10.5	5.33 µM	8.06	3.77 µM	1.38	GI50 (SF-539): 1.89 µM; GI50 (SNB-75; Homo sapiens): 1.77 µM; GI50 (SR): 1.98 µM; CC50 (SR): > 100 µM; CC50 (UACC-62; [2]): 5.61 µM; TGI (UACC-62): 2.78 µM
O=C(O)C(c1ccccc1)N1C(=O)/C(=C/C=C/c2ccc([N+](=O)[O-])o2)SC1=S (stereo not shown) [9b, 2-((Z)-5-((E)-3-(5-Nitrofuran-2-yl)allylidene)-4-oxo-2-thioxothiazolidin-3-yl)-2-phenylacetic acid]	12.3	20	36.7	20.1	20.6	37.6	5.54	14.1	2.51	12.9	11.7	3.38	38.8	44.5 µM	13.1	19.3	21.4 µM	27.9	7.39 µM	2.69	GI50 (SF-539): 12 µM; GI50 (SNB-75; Homo sapiens): 2.11 µM; GI50 (SR): 3.15 µM; CC50 (SR): > 100 µM; CC50 (UACC-62; [2]): 35.3 µM; TGI (UACC-62): 11.1 µM
O=C(O)CCCN1C(=O)/C(=C/C=C/c2ccc([N+](=O)[O-])o2)SC1=S [13b, 4-((Z)-5-((E)-3-(5-Nitrofuran-2-yl)allylidene)-4-oxo-2-thioxothiazolidin-3-yl)butanoic acid]	3.18	4.39	8.73	8.41	3.12	3.57	3.94	1.63	0.5	2.1	3.97	0.61	4.61	2.67 µM and 1.90 µM		> 100	2.04 µM and 1.36 µM	8.73	1.99 µM and 1.37 µM	0.31	growth GP (HOP-62; HOP-62, 10 μM, 48 h): -94.79%; GI50 (K-562): 0.09 µM; GI50 (OVCAR-3): 0.39 µM; GI50 (SNB-75; Homo sapiens): 0.38 µM; GI50 (SNB-75): 0.32 µM; CC50 (SR): > 100 µM; growth GP (UACC-62): -95.10%; GI50 (UACC-62): 0.18 µM
O=C(O)CCCCCN1C(=O)/C(=C/C=C/c2ccc([N+](=O)[O-])o2)SC1=S [14b, 6-((Z)-5-((E)-3-(5-nitrofuran-2-yl)allylidene)-4-oxo-2-thioxothiazolidin-3-yl)hexanoic acid]	1.8	4.52	6.61	4.11	3.3	1.53	3.13	0.85	0.28	2.57	2.11		4.6	3.05 µM and 3.01 µM	1.44		2.35 µM and 2.22 µM	5.68	2.61 µM and 1.43 µM	0.37	GI50 (HOP-62): 1.45 µM; GI50 (K-562): 0.28 µM; growth GP (OVCAR-3): -95.33%; GI50 (OVCAR-3): 0.96 µM; change of caspase-3 concentration [1]: at least two times more; GI50 (SR): 0.27 µM; CC50 (UACC-62; [2]): 4.08 µM; growth GP (UACC-62): -96.88%; GI50 (UACC-62): 0.25 µM; CC50 (UACC-62; read-out: LC50): 2.82 µM
